Results as given in ChEMBL document CHEMBL4610123, “Structure-Based Drug Discovery of N-((R)-3-(7-Methyl-1H-indazol-5-yl)-1-oxo-1-(((S)-1-oxo-3-(piperidin-4-yl)-1-(4-(pyridin-4-yl)piperazin-1-yl)propan-2-yl)amino)propan-2-yl)-2'-oxo-1',2'-dihydrospiro[piperidine-4,4'-pyrido[2,3-d][1,3]oxazine]-1-carboxamide (HTL22562): A Calcitonin Gene-Related …” (J Med Chem, 2020).
Values after ≈ are worked out from the molar mass of the structure shown.

What was measured:
[1] = Volume of distribution at steady state in cynomolgus monkey at 0.5 mg/kg, iv; format: ADME, organism-based, Macaca fascicularis; details: in vivo, read-out: Vdss
Homo sapiens [2] = species: Homo sapiens; test: Selectivity ratio of antagonist activity at amylin-1 receptor (unknown origin) to antagonist activity at human CGRP receptor in human SK-N-MC cells; format: cell-based
Cytochrome P450 2C19 = Cytochrome P450 2C19 (Homo sapiens, UniProt P33261); test: Inhibition of CYP2C19 (unknown origin); format: ADME
Sequence of Cytochrome P450 2C19 (P33261 whole entry): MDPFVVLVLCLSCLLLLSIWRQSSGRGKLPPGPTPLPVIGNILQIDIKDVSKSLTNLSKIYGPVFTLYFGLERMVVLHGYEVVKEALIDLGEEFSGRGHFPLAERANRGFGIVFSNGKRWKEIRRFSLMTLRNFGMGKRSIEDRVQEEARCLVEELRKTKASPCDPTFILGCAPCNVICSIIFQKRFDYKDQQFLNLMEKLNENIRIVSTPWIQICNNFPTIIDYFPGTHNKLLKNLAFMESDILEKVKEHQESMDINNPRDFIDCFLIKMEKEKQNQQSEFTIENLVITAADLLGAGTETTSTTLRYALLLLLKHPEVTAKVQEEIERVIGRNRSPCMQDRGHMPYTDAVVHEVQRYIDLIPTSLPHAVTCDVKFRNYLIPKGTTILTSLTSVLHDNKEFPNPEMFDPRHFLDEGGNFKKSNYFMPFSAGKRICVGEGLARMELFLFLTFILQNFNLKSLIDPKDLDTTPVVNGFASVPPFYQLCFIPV

[3] = target: T1, Mas-related G-protein coupled receptor member X2 (Homo sapiens, UniProt Q96LB1); test: Agonist activity at MRGPX2 (unknown origin)
T1 sequence (Q96LB1 whole entry): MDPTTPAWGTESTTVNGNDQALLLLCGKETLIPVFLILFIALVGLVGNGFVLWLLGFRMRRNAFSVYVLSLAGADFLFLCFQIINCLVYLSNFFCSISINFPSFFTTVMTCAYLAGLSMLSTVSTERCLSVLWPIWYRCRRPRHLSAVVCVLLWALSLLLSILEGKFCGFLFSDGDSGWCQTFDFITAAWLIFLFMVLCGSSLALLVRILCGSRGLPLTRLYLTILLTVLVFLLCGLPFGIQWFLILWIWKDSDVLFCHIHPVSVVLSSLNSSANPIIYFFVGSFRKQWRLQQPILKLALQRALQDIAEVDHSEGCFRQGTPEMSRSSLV

[4] = Half life in rat at 1 mg/kg, sc; format: ADME, organism-based; details: in vivo
[5] = Genotoxicity in Salmonella typhimurium TA1535 by mini AMES test; format: toxicity; details: salmonella enterica subsp. enterica serovar typhimurium
[6] = Half life in cynomolgus monkey at 0.5 mg/kg, sc; format: ADME, organism-based, Macaca fascicularis; details: in vivo
[7] = Half life in cynomolgus monkey at 0.5 mg/kg, iv; format: ADME, organism-based, Macaca fascicularis; details: in vivo
[8] = tested on: CALCRL/RAMP2 (adrenomedullin AM1 receptor) (Homo sapiens); test: Antagonist activity at human adrenomedullin-1 receptor
[9] = Thermodynamic solubility of the compound at pH 7.4; format: physicochemical; details: buffer, read-out: Therm_solubility
Homo sapiens [10] = species: Homo sapiens; test: Selectivity ratio of antagonist activity at adrenomedullin-1 receptor (unknown origin) to antagonist activity at human CGRP receptor in human SK-N-MC cells; format: cell-based
[11] = Efflux ratio of apparent permeability in MDCK cells; format: ADME, cell-based, Canis lupus familiaris; details: dog
[12] = Solubility of the compound at pH 5.7 using amorphous form of sample; format: physicochemical; details: buffer
[13] = Apparent permeability across apical to basolateral side in MDCK cells; format: ADME, cell-based, Canis lupus familiaris; details: dog
[14] = Half life in dog at 0.5 mg/kg, iv; format: ADME, organism-based, Canis lupus familiaris; details: in vivo
Macaca fascicularis = species: Macaca fascicularis; test: Antagonist activity at cynomolgus monkey CGRP receptor
[15] = Genotoxicity in Salmonella typhimurium TA100 by mini AMES test; format: toxicity; details: salmonella enterica subsp. enterica serovar typhimurium
[16] = Protein binding in dog plasma by high-throughput dialysis method; format: ADME, cell-free, Canis lupus familiaris; details: read-out: PPB (converted)
[17] = Genotoxicity in Salmonella typhimurium TA1537 by mini AMES test; format: toxicity; details: salmonella enterica subsp. enterica serovar typhimurium
[18] = target: T2, AHR (aryl hydrocarbon receptor) (Homo sapiens, UniProt P35869); test: Transactivation of AHR (unknown origin) assessed as induction of CYP450 at 3 uM relative to control; format: ADME; details: read-out: FC
T2 sequence (P35869 whole entry): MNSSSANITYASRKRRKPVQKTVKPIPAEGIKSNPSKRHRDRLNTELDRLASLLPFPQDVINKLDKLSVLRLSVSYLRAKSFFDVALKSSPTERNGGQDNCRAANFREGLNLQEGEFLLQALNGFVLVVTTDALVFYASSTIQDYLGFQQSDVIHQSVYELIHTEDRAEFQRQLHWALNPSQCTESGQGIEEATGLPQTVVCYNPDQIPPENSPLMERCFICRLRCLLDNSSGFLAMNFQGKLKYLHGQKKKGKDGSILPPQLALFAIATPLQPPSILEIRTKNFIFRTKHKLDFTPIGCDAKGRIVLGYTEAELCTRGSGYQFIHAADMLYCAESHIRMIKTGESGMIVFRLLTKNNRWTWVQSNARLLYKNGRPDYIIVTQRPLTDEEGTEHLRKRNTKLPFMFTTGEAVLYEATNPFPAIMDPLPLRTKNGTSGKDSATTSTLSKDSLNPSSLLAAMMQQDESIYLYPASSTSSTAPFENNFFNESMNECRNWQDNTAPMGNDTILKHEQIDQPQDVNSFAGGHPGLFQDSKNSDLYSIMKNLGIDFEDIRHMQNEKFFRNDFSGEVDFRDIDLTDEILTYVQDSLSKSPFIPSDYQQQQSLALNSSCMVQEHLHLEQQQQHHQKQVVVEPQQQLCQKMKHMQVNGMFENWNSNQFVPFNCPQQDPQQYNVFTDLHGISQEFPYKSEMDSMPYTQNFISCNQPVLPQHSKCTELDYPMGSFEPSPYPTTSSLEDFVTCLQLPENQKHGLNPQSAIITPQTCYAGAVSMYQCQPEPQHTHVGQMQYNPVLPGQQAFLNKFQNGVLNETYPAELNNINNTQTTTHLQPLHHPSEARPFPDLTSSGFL

PXR (NR1I2) = target: T3, PXR (NR1I2) (Homo sapiens, UniProt O75469); test: Transactivation of PXR (unknown origin) assessed as induction of CYP450 at 3 uM relative to control; format: ADME; details: read-out: FC
T3 sequence (O75469 whole entry): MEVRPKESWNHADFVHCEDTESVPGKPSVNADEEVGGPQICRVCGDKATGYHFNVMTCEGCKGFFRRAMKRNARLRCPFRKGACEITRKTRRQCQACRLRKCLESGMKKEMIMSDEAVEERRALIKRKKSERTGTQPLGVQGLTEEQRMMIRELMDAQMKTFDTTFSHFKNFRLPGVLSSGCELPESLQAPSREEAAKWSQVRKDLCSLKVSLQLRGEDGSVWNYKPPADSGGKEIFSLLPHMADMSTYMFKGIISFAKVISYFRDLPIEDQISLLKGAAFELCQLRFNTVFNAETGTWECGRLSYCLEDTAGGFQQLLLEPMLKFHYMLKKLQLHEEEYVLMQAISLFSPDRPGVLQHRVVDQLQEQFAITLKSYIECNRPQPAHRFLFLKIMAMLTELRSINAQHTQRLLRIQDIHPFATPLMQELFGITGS

Canis lupus familiaris = species: Canis lupus familiaris; test: Antagonist activity at dog CGRP receptor
[19] = Oral bioavailability in cynomolgus monkey at 0.5 mg/kg; format: ADME, organism-based, Macaca fascicularis; details: in vivo
[20] = target: T4, Mas-related G-protein coupled receptor member X2 (Homo sapiens) (UniProt Q96LB1); test: Agonist activity at MRGPX2 (unknown origin) at 10 uM relative to control
T4 sequence (whole entry): T1 sequence (Q96LB1 whole entry)

SMILES: Cc1cc(C[C@@H](NC(=O)N2CCC3(CC2)OC(=O)Nc2ncccc23)C(=O)N[C@@H](CC2CCNCC2)C(=O)N2CCN(c3ccncc3)CC2)cc2cn[nH]c12 [HTL-0022562]
- Vd [1]: 0.4 L/kg
- Selectivity ratio (Homo sapiens [2]): > 8000
- IC50 (Cytochrome P450 2C19): > 50.1 µM
- EC50 [3]: 900 nM
- half-life [4]: 156 min
- Activity [5]: Non-Toxic
- half-life [6]: 216 min
- half-life [7]: 318 min
- pKb [8]: < 5.7
- solubility thermodynamic [9]: 2460 µM (≈ 1880 µg/mL)
- Selectivity ratio (Homo sapiens [10]): > 8000
- efflux ratio [11]: > 2.7
- solubility [12]: 115 mg/mL (≈ 151 mM)
- Papp A→B [13]: 0.8 ×10⁻⁶ cm/s
- half-life [14]: 72 min
- pKb (Macaca fascicularis): 10.5
- Activity [15]: Non-Toxic
- fraction unbound [16]: 0.77
- Activity [17]: Non-Toxic
- fold induction at 3 µM [18]: 1.4
- fold induction at 3 µM (PXR (NR1I2)): 2.3
- pKb (Canis lupus familiaris): 7.2
- bioavailability [19]: 117%
- Activity [20]: 80%
